How the values were obtained:
A. calcoaceticus = test: Synergy of peptide and antibiotic, MIC and FIC (checkerboard); type: cell-based; conditions: Acinetobacter calcoaceticus, agent alone
Protocol: (§1) FICs are performed by checkerboard titrations of peptides in one dimension of a microtiter plate, and of antibiotics in the other dimension, for example. The FIC is calculated by looking at the impact of one antibiotic on the MIC of the other and vice versa. […] Preferably, an FIC of less than 0.5 is obtained for synergism. As used herein, FIC can be determined as follows: [formula]
(§2) Synergism is identified as an FIC of about ≦0.5.

E. cloacae = test: as above; type: cell-based; conditions: Enterobacter cloacae, agent alone
Protocol: as §1, §2

X. maltophila = test: as above; type: cell-based; conditions: agent alone
Protocol: as §1, §2

P. aeruginosa = test: microbe, parasite or virus in culture; conditions: agent alone
Protocol: as §1, §2

[1] = A. calcoaceticus isolate 1, strain ATCC 23055
[2] = A. calcoaceticus isolate 4, strain 28
[3] = A. calcoaceticus isolate 5, strain 8220
[4] = A. calcoaceticus isolate 6, strain 8221
[5] = A. calcoaceticus isolate 7, strain 8222
[6] = A. calcoaceticus isolate 8, strain 8223
[7] = A. calcoaceticus isolate 9, strain 8224
[8] = A. calcoaceticus isolate 2, strain 23
[9] = E. cloacae isolate 12, strain ATCC 13047
[10] = E. cloacae isolate 13, strain 37-1
[11] = E. cloacae isolate 14, strain 938-2
[12] = E. cloacae isolate 15, strain B5546
[13] = E. cloacae isolate 16, strain R4148
[14] = E. cloacae isolate 17, strain R4148-2
[15] = E. cloacae isolate 18, strain 3077
[16] = E. cloacae isolate 19, strain 3356
[17] = E. cloacae isolate 20, strain 14269
[18] = E. cloacae isolate 21, strain 14661
[19] = E. cloacae isolate 22, strain 18801
[20] = X. maltophila isolate 34, strain ATCC 13637
[21] = X. maltophila isolate 35, strain 6
[22] = X. maltophila isolate 36, strain 16
[23] = X. maltophila isolate 37, strain 3095
[24] = X. maltophila isolate 39, strain B3110.1
[25] = X. maltophila isolate 40, strain R1302-1
[26] = X. maltophila isolate 41, strain R4230
[27] = X. maltophila isolate 42, strain TF29-1
[28] = X. maltophila isolate 43, strain TF29-2
[29] = X. maltophila isolate 44, strain W6896-2
[30] = Pseudomonas aeruginosa, P. aeruginosa isolate 23, strain ATCC 27853
[31] = Pseudomonas aeruginosa, P. aeruginosa isolate 24, strain 34
[32] = Pseudomonas aeruginosa, P. aeruginosa isolate 25, strain 923-1
[33] = Pseudomonas aeruginosa, P. aeruginosa isolate 26, strain 3101
[34] = Pseudomonas aeruginosa, P. aeruginosa isolate 27, strain 14644
[35] = Pseudomonas aeruginosa, P. aeruginosa isolate 28, strain 15036
[36] = Pseudomonas aeruginosa, P. aeruginosa isolate 29, strain 15545
[37] = Pseudomonas aeruginosa, P. aeruginosa isolate 30, strain B3999-1
[38] = Pseudomonas aeruginosa, P. aeruginosa isolate 33, strain W5483-2
[39] = A. calcoaceticus isolate 3, strain 27
[40] = X. maltophila isolate 38, strain 7901
[41] = X. maltophila isolate 45, strain W11291
[42] = A. calcoaceticus isolate 10, strain 8225
[43] = A. calcoaceticus isolate 11, strain 8226
[44] = Pseudomonas aeruginosa, P. aeruginosa isolate 31, strain U7688-1
[45] = Pseudomonas aeruginosa, P. aeruginosa isolate 32, strain W2897-1

Measured: MIC

CC(C)(O/N=C(\C(=O)N[C@@H]1C(=O)N2C(C(=O)[O-])=C(C[n+]3ccccc3)CS[C@H]12)c1csc(N)n1)C(=O)O [Ceftazidime]
2 µg/mL: A. calcoaceticus; [1] | E. cloacae; [10] | E. cloacae; [11] | E. cloacae; [12] | E. cloacae; [15] | E. cloacae; [19] | P. aeruginosa; [35]
32 µg/mL: X. maltophila; [22] | P. aeruginosa; [30] | P. aeruginosa; [31]
512 µg/mL: E. cloacae; [13] | E. cloacae; [14] | E. cloacae; [17] | E. cloacae; [18] | X. maltophila; [23]
16 µg/mL: A. calcoaceticus; [2] | A. calcoaceticus; [3] | A. calcoaceticus; [5] | A. calcoaceticus; [6] | X. maltophila; [25] | P. aeruginosa; [37]
64 µg/mL: A. calcoaceticus; [7] | X. maltophila; [20] | X. maltophila; [21] | X. maltophila; [24] | X. maltophila; [29]
8 µg/mL: A. calcoaceticus; [4] | P. aeruginosa; [33] | P. aeruginosa; [36] | P. aeruginosa; [38]
4 µg/mL: E. cloacae; [9] | X. maltophila; [26] | X. maltophila; [27] | X. maltophila; [28] | P. aeruginosa; [32]
128 µg/mL: A. calcoaceticus; [8] | E. cloacae; [16] | P. aeruginosa; [34]

O=C(O)c1cn(C2CC2)c2cc(N3CCNCC3)c(F)cc2c1=O [Ciprofloxacin]
8 µg/mL: A. calcoaceticus; [39] | A. calcoaceticus; [2] | X. maltophila; [22] | X. maltophila; [27] | X. maltophila; [28]
4 µg/mL: X. maltophila; [21] | X. maltophila; [25] | X. maltophila; [26] | X. maltophila; [29] | X. maltophila; [41]
32 µg/mL: X. maltophila; [40] | P. aeruginosa; [34]
16 µg/mL: X. maltophila; [23] | P. aeruginosa; [35]

C[C@@H](O)[C@H]1C(=O)N2C(C(=O)O)=C(SCCN=CN)C[C@H]12 [Imipenem]
256 µg/mL: P. aeruginosa; [36] | P. aeruginosa; [37]
16 µg/mL: A. calcoaceticus; [2] | P. aeruginosa; [34] | P. aeruginosa; [35]
2 µg/mL: A. calcoaceticus; [1] | A. calcoaceticus; [3] | A. calcoaceticus; [6] | A. calcoaceticus; [7] | A. calcoaceticus; [42] | E. cloacae; [10] | E. cloacae; [12] | E. cloacae; [14] | E. cloacae; [18] | E. cloacae; [19]
4 µg/mL: A. calcoaceticus; [5] | A. calcoaceticus; [43] | E. cloacae; [11] | E. cloacae; [13] | E. cloacae; [15] | E. cloacae; [16] | E. cloacae; [17] | P. aeruginosa; [32]
8 µg/mL: P. aeruginosa; [30] | P. aeruginosa; [33]
1 µg/mL: A. calcoaceticus; [4] | E. cloacae; [9]
512 µg/mL: A. calcoaceticus; [8] | P. aeruginosa; [31]

CCN1CCN(C(=O)N[C@@H](C(=O)N[C@@H]2C(=O)N3[C@@H]2SC(C)(C)[C@@H]3C(=O)O)c2ccccc2)C(=O)C1=O [Piperacillin]
64 µg/mL: E. cloacae; [16] | P. aeruginosa; [32] | P. aeruginosa; [33] | P. aeruginosa; [45]
16 µg/mL: A. calcoaceticus; [39] | A. calcoaceticus; [3] | A. calcoaceticus; [4] | E. cloacae; [18]
32 µg/mL: A. calcoaceticus; [5] | A. calcoaceticus; [42] | A. calcoaceticus; [43]
1020 µg/mL: A. calcoaceticus; [8] | E. cloacae; [13] | E. cloacae; [14] | E. cloacae; [17] | X. maltophila; [20] | X. maltophila; [22] | X. maltophila; [26] | X. maltophila; [27] | X. maltophila; [28] | X. maltophila; [29] | P. aeruginosa; [31] | P. aeruginosa; [35]
4 µg/mL: A. calcoaceticus; [2] | E. cloacae; [10] | E. cloacae; [19]
256 µg/mL: A. calcoaceticus; [7]
8 µg/mL: A. calcoaceticus; [1] | E. cloacae; [9] | E. cloacae; [11] | E. cloacae; [12] | E. cloacae; [15]
512 µg/mL: X. maltophila; [23] | X. maltophila; [40] | X. maltophila; [24] | X. maltophila; [25] | X. maltophila; [41] | P. aeruginosa; [34] | P. aeruginosa; [36] | P. aeruginosa; [37] | P. aeruginosa; [44]

NC[C@H]1O[C@H](O[C@H]2[C@H](O)[C@@H](O[C@H]3O[C@H](CO)[C@@H](O)[C@H](N)[C@H]3O)[C@H](N)C[C@@H]2N)[C@H](N)C[C@@H]1O [Tobramycin]
2 μg · mL^1: P. aeruginosa; Table 33, P. aeruginosa isolate 29, strain 15545 | P. aeruginosa; Table 33, P. aeruginosa isolate 31, strain U7688-1 | P. aeruginosa; Table 33, P. aeruginosa isolate 33, strain W5483-2
128 µg/mL: A. calcoaceticus; [2]
32 µg/mL: X. maltophila; [23] | X. maltophila; [40] | X. maltophila; [24] | X. maltophila; [25]
16 µg/mL: X. maltophila; [26] | X. maltophila; [29]
4 µg/mL: A. calcoaceticus; [1] | A. calcoaceticus; [3] | A. calcoaceticus; [4] | A. calcoaceticus; [5] | A. calcoaceticus; [6] | A. calcoaceticus; [7] | A. calcoaceticus; [42] | A. calcoaceticus; [43] | X. maltophila; [21]
64 µg/mL: P. aeruginosa; [31]
1 µg/mL: A. calcoaceticus; [39] | E. cloacae; [9] | E. cloacae; [10] | E. cloacae; [13] | E. cloacae; [14] | E. cloacae; [15] | E. cloacae; [16] | E. cloacae; [17] | E. cloacae; [18] | E. cloacae; [19] | P. aeruginosa; [30] | P. aeruginosa; [32] | P. aeruginosa; [33] | P. aeruginosa; [35] | P. aeruginosa; [44] | P. aeruginosa; [45] | P. aeruginosa; [38]
64 μg · mL^1: P. aeruginosa; Table 33, P. aeruginosa isolate 24, strain 34
2 µg/mL: E. cloacae; [11] | E. cloacae; [12] | X. maltophila; [27] | X. maltophila; [28] | P. aeruginosa; [34] | P. aeruginosa; [36] | P. aeruginosa; [37]
1 μg · mL^1: P. aeruginosa; Table 33, P. aeruginosa isolate 23, strain ATCC 27853 | P. aeruginosa; Table 33, P. aeruginosa isolate 25, strain 923-1 | P. aeruginosa; Table 33, P. aeruginosa isolate 26, strain 3101 | P. aeruginosa; Table 33, P. aeruginosa isolate 27, strain 14644 | P. aeruginosa; Table 33, P. aeruginosa isolate 28, strain 15036 | P. aeruginosa; Table 33, P. aeruginosa isolate 30, strain B3999-1 | P. aeruginosa; Table 33, P. aeruginosa isolate 32, strain W2897-1

— patent US6465429B1, “Antimicrobial cationic peptides” (priority 1995, dated 2002)
